Assays:
Type in all cases: in vivo, rat
[1] = test system: male SD rats; test: Elevated plus maze, transfer latency, scopolamine-induced amnesia; conditions: scopolamine 0.6 mg/kg i.p., Ashwagandha extract 100 mg/kg, Piracetam 200 mg/kg, 10 days, Mean ± SEM (n = 6)
Procedure: (§1) Twenty-four male SD rats were divided into four groups comprising of 6 rats in each group. The animals were treated as per the following details: • Group 1: Normal control (0.5% Polysorbate 80; 10 ml/kg) • Group 2: Untreated control (Scopolamine; 0.6 mg/kg i.p.) • Group 3: Piracetam—200 mg/kg+Scopolamine 0.6 mg/kg i.p. • Group 4: Ashwagandha extract (Sample 4)—100 mg/kg+Scopolamine 0.6 mg/kg i.p.
(§2) The vehicle/extract/standard was administered daily for 10 consecutive days. Habituation to swimming was conducted on day 6 of the experiment. Scopolamine was injected 30 minutes after the vehicle/extract/standard to the designated groups. The following behavioural test was conducted at the end of the treatment by using Elevated plus maze apparatus, Y maze model and Cooks pole climbing method.
The elevated plus-maze consists of two open arms and two closed arms (50×10×40 cm each) were elevated to a height of 50 cm. The rats were placed individually at the end of an open arm facing away from the central platform, and the time taken by them to move from there to either of the close arm transfer latency was recorded. […] The rats were allowed to explore the maze for another 10 seconds and then return to the home cage. […] On the 10th day Standard and test substances were administered orally 30 mins before scopolamine injection transfer latency was recorded.

[2] = test system: male SD rats; test: Cooks pole climbing test, conditioned avoidance, scopolamine-induced amnesia; conditions: scopolamine 0.6 mg/kg i.p., Ashwagandha extract 100 mg/kg, Piracetam 200 mg/kg, Mean ± SEM (n = 6)
Procedure: as §1, §2
Pole climbing test: Rats were trained in such a way that the animal had to climb the pole (shock free zone) within 30 s to avoid a shock. The shock was preceded by a buzzer that lasted for 15 s. The animals were trained to climb the pole at the sound of the buzzer (conditioned avoidance response). At particular intervals, 20 trials were given for each animal and average of the shock avoidance and mistakes were recorded. Trained animals were assayed by conditioned avoidance responses.

[3] = test system: male SD rats; test: Y-Maze model, scopolamine-induced amnesia; conditions: scopolamine 0.6 mg/kg i.p., Ashwagandha extract 100 mg/kg, Piracetam 200 mg/kg, Mean ± SEM (n = 6)
Procedure: as §1, §2
Y-Maze model—The treatment was started (as per the groups mentioned) for animals from the day 1 and continues up to day 8. […] Briefly, each time animals were placed just inside arm B facing away from the center and allowed to move through apparatus for 8 min, while being monitored by tracking system. […] Each arm entry (defined as all four paws entering arm) was scored and recorded. Animals were returned to home cage and numbers of fecal pellets were counted in the Y maze and data was recorded. […]

[4] = test system: male SD rats; test: Morris Water Maze (MWM), scopolamine-induced amnesia; conditions: scopolamine 0.6 mg/kg i.p., Ashwagandha extract 100 mg/kg, Piracetam 200 mg/kg, mean
Procedure: as §1, §2
The MWM consists of a circular pool (180 cm in diameter and 60 cm in height) with a featureless inner surface. The circular pool was filled with water (23±1° C.) up to a height of 40 cm. The pool was divided into four quadrants of equal area. The escape platform was centered in one of the four quadrants. The day before the training experiments (day 6), animals were habituated to swim training for 60 s in the absence of the platform. The animals were treated with vehicle/extract/standard drug for 6 days. On day 7, 30 min after the administration of vehicle/extract/standard drug, scopolamine (0.6 mg/kg, i.p.) was injected. Training session was started 30 min after scopolamine administration. The rats were given four trial sessions each day for four consecutive days (day 7-10), with an inter-trial interval of 15 min, and the escape latencies were recorded. Once the rat located the platform, it was permitted to remain on it for 15 s to observe the vital clues. […] On day 11, the probe test was performed by removing the platform from the pool and a cut-off time of 60 s was kept for exploring. The time spent by the animal in the target quadrant was recorded. The higher value of the time spent in quadrant indicate better retention ability as the animal remembered the position of the platform.

## NC(=O)CN1CCCC1=O [Piracetam]
[1]
  Transfer Latency: 7.00 ± 0.89 s
[2]
  Avoidance/Escape latency: 6.00 ± 0.89 s
[3]
  Number of Arm entries: 5.00 ± 0.89
  Retention Latency: 2.07 ± 0.46 min
[4]; MWM Day 7
  Time to reach escape platform on training days: 74.25 s
[4]; MWM Day 8
  Time to reach escape platform on training days: 47.33 s
[4]; MWM Day 9
  Time to reach escape platform on training days: 9.83 s
[4]; MWM Day 10
  Time to reach escape platform on training days: 5.25 s

Source: patent publication US20260248872A1, “WITHANIA SOMNIFERA COMPOSITION FOR IMPROVING MEMORY AND COGNITION” (ARJUNA NATURAL PRIVATE LIMITED, priority 2023, published 2026)
